Test results: US20090074861A1, “STABLE TABLET CONTAINING DROXIDOPA” (DAINIPPON SUMITOMO PHARMA CO., LTD., priority 2005, published 2009)

Assay: Coloring and deliquescence of compressed droxidopa/additive mixtures on preservation
Format: physicochemical
Protocol: Droxidopa and the following excipients were mixed at 1:1 in a mortar and the mixture was compressed at a pressure of 20 kgf/cm^2 using an oil hydraulic press (manufactured by RIKEN). The obtained tablets were preserved under the respective conditions of 60° C. […] The 60° C. 2 week preservation product was measured for the color difference from the initial stage preservation product using a spectral calorimeter (SE-2000: manufactured by Nippon Denshoku Industries Co., Ltd.).
Droxidopa and the following excipients were mixed at 4:1 in a mortar and the mixture was compressed at a pressure of 20 kgf/cm^2 using an oil hydraulic press (manufactured by RIKEN) .

N[C@H](C(=O)O)[C@H](O)c1ccc(O)c(O)c1 [droxidopa alone (without disintegrant), droxidopa]
60° C. × 2 W color difference (droxidopa:additive 1:1 compressed tablet, difference from initial stage product): 2.73
60° C. × 2 W color difference (droxidopa:additive 4:1 compressed tablet): 2.73
